Measurements as given in patent publication EP2353599A1, “8-hydroxyquinolines as inhibitors of cathepsin B” (University of Ljubljana, priority 2010, dated 2011).
Entries after “also recorded” stand apart in the source; their conditions may differ.

Legend:
Cathepsin B [1] = target: T1, Cathepsin B (Homo sapiens, UniProt P07858); assay: Cathepsin B endopeptidase activity, enzyme kinetics with substrate Z-RR-AMC; assay type: biochemical; details: endopeptidase activity, substrate Z-RR-AMC, pH 6.0, 37°C
Experimental: The effect of 8-hydroxyquinolines on cathepsin B enzymatic activity was assessed using enzyme kinetics. First, the effect of 8-hydroxyquinolines on cathepsin B endopeptidase activity was assessed using the cathepsin B specific endopeptidase substrate Z-RR-AMC. 5 µl of the Z-RR-AMC (final concentration 60, 180 and 360 µM) and 5 µl of respective compound at increasing concentrations were added to wells of a black microplate. 90 µl of human recombinant cathepsin B was then added to a final concentration of 0.4 nM in activation buffer (100 mM phosphate buffer, pH 6.0 with 0.1 % PEG, 5 mM DTT and 1.5 mM EDTA). All assay mixtures contained a constant amount of DMSO, i.e. 5 %. Formation of fluorescent degradation product was continuously monitored at 380 nm ± 20 nm excitation and […] ± 10 nm emission wavelengths on Tecan Safire^2™ at 37°C. Mechanism and the constant of inhibition (Ki) of cathepsin B endopeptidase activity were determined using the graphical method according to Cornish-Bowden (Cornish-Bowden A: A Simple Graphical Method for Determining the Inhibition Constants of Mixed, Uncompetitive and Non-Competitive Inhibitors. Biochem J 1974, 137:143-4.) and using the SigmaPlot® 11, Enzyme Kinetics Module™ 1.3. Table I. Results of testing the compounds according to Formula (I) on cathepsin B endopeptidase activity.

Cathepsin B [2] = target: T1, Cathepsin B; details: cited from earlier work; for less potent in vitro than parent inhibitor: esterified cell permeable derivatives versus E-64 and CA-074; for inhibit cathepsin B: background
MCF-10A neoT cells [3] = assay: Intracellular DQ-collagen IV degradation by flow cytometry; assay type: cell-based; details: 50 µM, shift in fluorescence intensity
Experimental: Inhibition of intracellular DQ-collagen IV degradation was observed by flow cytometry by a shift in fluorescence intensity. 5 × 10^4 MCF-10A neoT cells in complete medium were plated into the wells of a 24-well plate and allowed to attach over night. Afterwards, the medium was replaced with 500 µl of serum free medium with 5-nitro-8-hydroxyquinoline, CA-074 or CA-074Me (50 µM). After 2 h incubation the medium was again replaced with serum free medium containing inhibitors (50 µM) and DQ-collagen IV (5 µg/ml). DMSO was used as a control. For the experiment only viable cells were selected using propidium iodide. The measurements were performed on a FACS Calibur instrument (Beckton Dickinson, Inc.).

MCF-10A neoT cells [4] = assay: Extracellular DQ-collagen IV degradation, fluorescence intensity in medium; assay type: cell-based; details: 3 h, DQ-collagen IV 5 µg/ml
Experimental: Two experiments were set to differentiate between inhibition of intracellular and extracellular DQ-collagen IV degradation. Inhibition of extracellular DQ-collagen IV degradation was observed by monitoring the fluorescence intensity of degraded DQ-collagen IV in the medium in which MCF-10A neoT cells were grown. 5 × 10^4 MCF-10A neoT cells were plated into wells of a 96-well black plate and were allowed to attach over night. Cells were then incubated with 100 µl PBS containing 5-nitro-8-hydroxyquinoline, CA-074 or CA-074Me (10 µM) and DQ-collagen IV (5 µg/ml) for 3 h. Afterwards, the 80 µl of PBS was transferred into the empty wells and the fluorescence intensity was measured at 495 nm ± 5 nm excitation and 515 nm ± 5 nm emission wavelengths on Tecan Safire^2™. The experiment was performed in 8 parallels and DMSO was used as a control.

Cathepsin B [5] = target: T1, Cathepsin B; assay: Reversibility by mass spectrometry (ESI-MS of cathepsin B after incubation and dialysis); assay type: binding; details: equimolar inhibitor, 1 h room temperature, dialysis
Experimental: Third, reversibility of 5-nitro-8-hydroxyquinoline was also checked with mass spectrometry. Cathepsin B (4.4 µM) was activated in the activation buffer for 5 min at 37 °C. Afterwards, an equimolar amount of the inhibitor was added to the enzyme and incubated for 1 h at room temperature. The mixture was dialyzed against water five times using Microcon Centrifugal Filter Devices YM-10 to avoid salt interferences and to remove unbound molecules of the test compound. Samples were then prepared by adding an equal volume of acetonitrile containing 0.1 % formic acid and analyzed with ESI-MS on an AutoSpec Q instrument. As a positive control CA-074 was used.

Cathepsin B [6] = target: T1, Cathepsin B; assay: Reversibility with active site probe DCG-04 (labelling, SDS-PAGE, blot); assay type: binding; details: 0.1, 1, 10 and 50 µM inhibitor, 1 h, then 2 µM DCG-04
Source text: Second, the reversibility of 5-nitro-8-hydroxyquinoline was also studied with the active site probe DCG-04. DCG-04 is a derivative of an irreversible epoxysuccinic inhibitor of cysteine proteases E-64 with an additional biotin moiety which enables detection of covalently modified proteases with labelling intensity correlating with enzymatic activity (Greenbaum D, Medzihradszky KF, Burlingame A, Bogyo M: Epoxide electrophiles as activity-dependent cysteine protease profiling and discovery tools. Chem Biol 2000, 7: 569-81.). 1 µg of recombinant cathepsin B in 50 mM Tris, pH 5.5 containing 1 mM DTT, 5 mM MgCl2 and 250 mM sucrose was incubated with 0.1, 1, 10 in 50 µM 5-nitro-8-hydroxyquinoline (diluted from 10 mM DMSO stocks) for 1 h at room temperature. Samples were then labelled with 2 µM DCG-04 for an additional h at room temperature. After boiling in reducing sample buffer for 10 min samples were analyzed by 12.5 % SDS-PAGE and transferred to a nitrocellulose membrane. The latter was then blocked with 0.5 % Tween 20 in PBS overnight at 4 °C and incubated with 1 µg/ml streptavidin-horseradish peroxidase in 0.2 % Tween 20 in PBS for 1 h at room temperature. The membrane was washed five times with 0.2 % Tween 20 in PBS and the spots on the membrane were visualized with 0.5 mg/ml 3,3'-diaminobenzidine and 0.0005 % (v/v) H2O2 in 50 mM Tris, pH 7.5. […]

O=[N+]([O-])c1cc(CN2CCCC(O)C2)c(O)c2ncccc12 (racemic) [Compound 8, 7-((3-Hydroxypiperidin-1-yl)methyl)-5-nitro-8-hydroxyquinoline] showed a Ki (Cathepsin B [1]) of 110 ± 3.1 µM.
In the case of CCCNC(=O)[C@H]1O[C@@H]1C(=O)N[C@H](C(=O)N1CCC[C@H]1C(=O)OC)[C@@H](C)CC [CA-074Me], the “less potent in vitro than parent inhibitor” value (Cathepsin B [2]) is given as 100-1000 fold, the “inhibition of intracellular DQ-collagen IV degradation” value (MCF-10A neoT cells [3]) is given as “significantly inhibited” and the “inhibition of extracellular DQ-collagen IV degradation” value (MCF-10A neoT cells [4]; 10 µM) is given as 33.8%.
For CCCNC(=O)[C@H]1O[C@@H]1C(=O)N[C@H](C(=O)N1CCC[C@H]1C(=O)O)[C@@H](C)CC [CA-074], the “inhibit cathepsin B” value (Cathepsin B [2]) is listed as “nanomolar range”, the “inhibition of intracellular DQ-collagen IV degradation” value (MCF-10A neoT cells [3]) is listed as “only slightly inhibited; also recorded: did not” and the inhibition at 10 µM (MCF-10A neoT cells [4]; Homo sapiens, MCF-10A-neoT) is listed as 31.1%. The “change of mass of the enzyme” value (Cathepsin B [5]) was 384 Da and the “intensity of spots (DCG-04 labelling) versus DMSO control” value (Cathepsin B [6]) was “concentration dependent loss of spot intensity”.
With O=[N+]([O-])c1cc(CN2CCOCC2)c(O)c2ncccc12 [Compound 2, 7-(Morpholinomethyl)-5-nitro-8-hydroxyquinoline] the Ki (Cathepsin B [1]) was 119 ± 4.2 µM.
O=[N+]([O-])c1cc(CN2CCCC2)c(O)c2ncccc12 [Compound 3, 7-(Pyrrolidinomethyl)-5-nitro-8-hydroxyquinoline] gave a Ki (Cathepsin B [1]) of 118 ± 3.1 µM.
CN1CCN(Cc2cc([N+](=O)[O-])c3cccnc3c2O)CC1 [Compound 4, 7-((4-Methylpiperazin-1-yl)methyl)-5-nitro-8-hydroxyquinoline] gave a Ki (Cathepsin B [1]) of 75.6 ± 4 µM.
Work on O=[N+]([O-])c1cc(CN2CCC(O)CC2)c(O)c2ncccc12 [Compound 5, 7-((4-Hydroxypiperidin-1-yl)methyl)-5-nitro-8-hydroxyquinoline] yielded a Ki (Cathepsin B [1]) of 130 ± 3.4 µM.
With CC1CCN(Cc2cc([N+](=O)[O-])c3cccnc3c2O)CC1 [Compound 6, 7-((4-Methypiperidin-1-yl)methyl)-5-nitro-8-hydroxyquinoline] the Ki (Cathepsin B [1]) was 130 ± 3.5 µM.
With O=C(O)C1CCN(Cc2cc([N+](=O)[O-])c3cccnc3c2O)CC1 [Compound 7, 7-((4-Carboxypiperidin-1-yl)methyl)-5-nitro-8-hydroxyquinoline] the Ki (Cathepsin B [1]) was 89 ± 3.3 µM.
In the case of CC(C)C[C@H](NC(=O)[C@H]1O[C@@H]1C(=O)O)C(=O)NCCCCN=C(N)N [Compound E-64], the “inhibit cathepsin B” value (Cathepsin B [2]) is given as “nanomolar range”.
In the case of CCOC(=O)[C@H]1O[C@@H]1C(=O)N[C@@H](CC(C)C)C(=O)NCCC(C)C [Compound E-64d], the “less potent in vitro than parent inhibitor” value (Cathepsin B [2]) is listed as 100-1000 fold.
